We go through one compound from US20230303581A1, “ORALLY BIOAVAILABLE, BRAIN-PENETRANT COMPOUND WITH SELECTIVITY FOR THE CANNABINOID TYPE 2 RECEPTOR WITH POTENTIAL USE TOWARDS VISCERAL PAIN MANAGEMENT AND NEURODEGENERATIVE DISORDERS” (University of Mississippi, priority 2022, published 2023).

The target of the experiment is human CB2 receptors (Homo sapiens (Human), UniProt P34972). As to the kind of experiment: Cannabinoid receptor binding (displacement) assay, CB2. The settings on record: CB2, full competition curves. On the procedure:
The affinities of the compounds for CB1 and CB2 receptors were examined using displacement assays, as previously described. Briefly, cell membranes from CHO cells expressing human CB1 or human CB2 receptors were isolated using differential centrifugation. Test compounds reconstituted in DMSO and were incubated with the isolated membrane in binding buffer (50 mM Tris-HCl, 1 mM EDTA, 3 mM MgCl2, 5 mg/mL BSA, pH 7.4) along with 2.5 nM [^3H]CP-55,940. Total binding was assessed in the presence of equal concentration of DMSO, while non-specific binding was determined in the presence of 10 μM CP-55,940, and background binding was determined in wells lacking membrane. Following incubation at 30° C. for 60 min, the binding reactions were terminated by vacuum filtration through Whatman GF/C filters. The filters were then washed twice with ice-cold buffer (50 mM Tris-HCl, 1 mg/mL BSA). Liquid scintillation cocktail was added to each well and the total tritiated counts per minute were analyzed using a TopCount scintillation counter. Background counts were subtracted from all wells and the percent displacement from total binding was calculated.
The compounds were initially screened at 10 μM concentrations. If they produced at least ±30% displacement of the radioligand, then full competition curves were constructed. Ki values were calculated using GraphPad Prism (San Diego, CA, USA) and Kd values determined using a 1 site fit. All assays were run in technical and biological replicates so that the n=5-6. PK Evaluation in CD-1 Mice
The CB1/CB2 receptor binding activities of analogs 4a-4q were assessed via radioactivity-based competitive binding assays using [^3H]CP55,940, an extensively studied radioligand that is frequently used for cannabinoid assays. […] In preliminary screening, all 17 synthetic PBD compounds (4a-4q) were subjected to in vitro CB1 and CB2 binding assays at a single concentration of 10 μM. […] Therefore, the most promising ligands (4k and 4q) were selected for assessment in full competition curves against CB1 and CB2.

Chain of human CB2 receptors (P34972 whole entry): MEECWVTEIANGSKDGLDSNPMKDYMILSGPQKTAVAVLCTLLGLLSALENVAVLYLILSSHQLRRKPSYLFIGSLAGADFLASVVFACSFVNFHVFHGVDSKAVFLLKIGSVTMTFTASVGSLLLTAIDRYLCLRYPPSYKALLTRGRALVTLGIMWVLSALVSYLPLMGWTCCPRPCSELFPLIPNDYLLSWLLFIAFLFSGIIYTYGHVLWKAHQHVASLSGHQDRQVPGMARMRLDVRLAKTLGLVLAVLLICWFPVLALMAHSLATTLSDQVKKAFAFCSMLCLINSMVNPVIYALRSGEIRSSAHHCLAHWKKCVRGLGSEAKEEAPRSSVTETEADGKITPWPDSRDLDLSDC

In the case of `O=C1c2ccc(Cl)cc2N/C(=N/N=C/c2cc3ccccc3s2)[C@@H]2CCCN12` [Compound 4k], the Ki – broadly, the equilibrium dissociation constant of an inhibitor or competing ligand from its target – worked out at 146 nM.
